ChEMBL document CHEMBL1201862, “PubChem BioAssay data set” (2004)
The source made the active and inactive calls.

What was measured:
[1] = viability of HCT116 lacking mutant beta-catenin – cell-based, human colon tumor, dose response (AID 1045); assay type: functional;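 note: HCT116 colon tumor cells with beta catenin knocked out; cells exposed to compound for 60 hours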
[2] = viability of PTEN-deleted HCT116 cells – cell-based, HCT116 PTEN knockout, dose response (AID 1047); assay type: functional;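 note: HCT116 colon tumor cells with PTEN knocked out; cells exposed to compound for 60 hours before readout; potency for loss of cell viability measured by luminescence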
A-375 [3] = test: MITF: Counter assay: A375 proliferation Measured in Cell-Based System Using Plate Reader - 2084-03_Inhibitor_Dose_DryPowder_Activity. [Related pubchem assays (depositor defined):AID488944]; assay type: functional; details: Homo sapiens
A-375 [4] = test: proliferation inhibition in MITF-low A375 cells – cell-based, cherry-pick samples, set 2, counter-screen for MITF modulator project, dose response (AID 540335); assay type: functional; details: Homo sapiens
Cytochrome P450 2C9 = Cytochrome P450 2C9 (Homo sapiens, UniProt P11712)
Chain of Cytochrome P450 2C9 (P11712 whole entry): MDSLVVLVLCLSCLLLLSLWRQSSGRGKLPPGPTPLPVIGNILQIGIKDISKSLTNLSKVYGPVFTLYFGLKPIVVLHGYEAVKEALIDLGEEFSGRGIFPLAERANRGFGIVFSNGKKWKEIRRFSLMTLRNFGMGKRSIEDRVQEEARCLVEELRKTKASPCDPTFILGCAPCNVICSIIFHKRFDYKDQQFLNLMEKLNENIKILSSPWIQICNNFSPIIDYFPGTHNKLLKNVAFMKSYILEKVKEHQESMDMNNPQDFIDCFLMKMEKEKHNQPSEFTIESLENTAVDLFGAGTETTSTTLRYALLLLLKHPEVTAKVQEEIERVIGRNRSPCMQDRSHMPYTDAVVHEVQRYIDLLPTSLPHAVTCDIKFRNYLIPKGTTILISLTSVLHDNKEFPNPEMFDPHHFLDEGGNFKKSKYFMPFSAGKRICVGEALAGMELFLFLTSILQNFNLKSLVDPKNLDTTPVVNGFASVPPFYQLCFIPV

Cytochrome P450 2C19 = Cytochrome P450 2C19 (Homo sapiens, UniProt P33261); test: Cytochrome panel assay with activity outcomes. Panel member name: p450-cyp2c19 Compounds with AC50 equal or less than 10 uM are considered active; assay type: functional
Chain of Cytochrome P450 2C19 (P33261 whole entry): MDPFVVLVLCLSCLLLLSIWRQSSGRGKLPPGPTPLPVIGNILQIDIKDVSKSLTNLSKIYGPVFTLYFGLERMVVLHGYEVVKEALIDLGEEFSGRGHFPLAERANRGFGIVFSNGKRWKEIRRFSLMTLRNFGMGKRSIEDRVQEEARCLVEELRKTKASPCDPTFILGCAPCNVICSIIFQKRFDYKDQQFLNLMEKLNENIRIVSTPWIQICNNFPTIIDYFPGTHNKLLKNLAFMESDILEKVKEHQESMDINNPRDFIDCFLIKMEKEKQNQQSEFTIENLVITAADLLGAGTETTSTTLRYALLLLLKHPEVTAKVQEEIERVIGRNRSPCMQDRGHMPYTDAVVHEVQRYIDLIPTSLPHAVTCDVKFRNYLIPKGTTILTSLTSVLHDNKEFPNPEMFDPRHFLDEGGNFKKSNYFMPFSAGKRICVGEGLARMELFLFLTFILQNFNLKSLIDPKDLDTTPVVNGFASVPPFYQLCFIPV

Cytochrome P450 1A2 = biological target: T1, Cytochrome P450 1A2 (Homo sapiens, UniProt P05177);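 note: PubChem cytochrome P450 panel assay, CYP1A2 panel member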
T1 sequence (P05177 whole entry): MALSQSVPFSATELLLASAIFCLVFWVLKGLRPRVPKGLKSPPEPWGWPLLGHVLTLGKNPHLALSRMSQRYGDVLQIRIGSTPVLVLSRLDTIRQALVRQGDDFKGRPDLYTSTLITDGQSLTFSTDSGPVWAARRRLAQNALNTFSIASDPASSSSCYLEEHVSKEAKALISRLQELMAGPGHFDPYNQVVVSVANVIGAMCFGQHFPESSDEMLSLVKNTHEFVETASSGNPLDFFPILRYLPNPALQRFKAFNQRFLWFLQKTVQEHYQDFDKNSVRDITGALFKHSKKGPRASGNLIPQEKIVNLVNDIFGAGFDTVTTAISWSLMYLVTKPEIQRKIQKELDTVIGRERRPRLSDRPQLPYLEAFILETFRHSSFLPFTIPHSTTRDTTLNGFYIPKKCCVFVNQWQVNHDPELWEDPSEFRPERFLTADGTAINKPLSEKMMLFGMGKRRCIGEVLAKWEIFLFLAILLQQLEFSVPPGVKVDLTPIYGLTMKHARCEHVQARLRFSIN

[5] = biological target: T2, Dual specificity protein phosphatase 3 (Homo sapiens, UniProt P51452); test: SAR VHR1 absorbance Assay for In Vitro dose response studies. [Related pubchem assays (depositor defined):AID1654, AID1661, AID1878, AID1992, AID2004]
T2 sequence (P51452 whole entry): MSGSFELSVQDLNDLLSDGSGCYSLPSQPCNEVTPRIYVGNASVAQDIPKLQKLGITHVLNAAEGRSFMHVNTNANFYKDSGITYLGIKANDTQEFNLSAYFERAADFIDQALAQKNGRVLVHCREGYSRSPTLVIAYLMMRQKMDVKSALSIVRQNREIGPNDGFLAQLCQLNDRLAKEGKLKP

cells [6] = assay type: functional, cell-based
[7] = biological target: T3, Dual specificity protein phosphatase 6 (Rattus norvegicus, UniProt Q64346); test: SAR analysis of inhibitors of MKP-3 - Set 2. [Related pubchem assays (depositor defined):AID1055, AID1661, AID425, AID553, AID566]; assay type: functional
T3 sequence (Q64346 whole entry): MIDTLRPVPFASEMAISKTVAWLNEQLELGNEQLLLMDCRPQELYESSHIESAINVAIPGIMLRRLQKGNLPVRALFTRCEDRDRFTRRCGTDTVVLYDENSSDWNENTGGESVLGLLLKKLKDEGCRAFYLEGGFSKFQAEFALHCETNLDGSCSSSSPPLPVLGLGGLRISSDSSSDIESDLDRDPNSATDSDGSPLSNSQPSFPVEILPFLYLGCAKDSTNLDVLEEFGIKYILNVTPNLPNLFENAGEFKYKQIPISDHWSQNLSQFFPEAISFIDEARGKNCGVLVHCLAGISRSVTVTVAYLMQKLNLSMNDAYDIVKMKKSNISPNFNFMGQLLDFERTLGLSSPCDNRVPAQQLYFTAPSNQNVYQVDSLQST

[8] = biological target: T2, Dual specificity protein phosphatase 3; test: VHR1 phosphatase inhibitors, biochemical (AID 1878)
[9] = biological target: T2, Dual specificity protein phosphatase 3; test: VHR phosphatase inhibition, dose response, selectivity assay for STEP inhibitor project, biochemical (AID 602374); assay type: functional; details: read-out: IC50_Mean
cells [10] = assay type: functional, cell-based; remark: listed apart in the source
[11] = biological target: T3, Dual specificity protein phosphatase 6; assay type: functional
[12] = biological target: T2, Dual specificity protein phosphatase 3; test: SAR VHR1 Fluorescent Assay for In Vitro dose response studies. [Related pubchem assays (depositor defined):AID1654, AID1661, AID1878, AID1992, AID2004, AID2070, AID2085]; assay type: functional
[13] = biological target: T3, Dual specificity protein phosphatase 6; test: inhibition of rat DUSP6 enzyme activity – biochemical, in vitro, primary screen (AID 425)
[14] = biological target: T4, Tyrosine-protein phosphatase non-receptor type 7 (Homo sapiens, UniProt P35236); test: redox-active compounds inhibiting HePTP phosphatase – biochemical, fluorescence, mechanism study (AID 2068); assay type: functional
T4 sequence (P35236 whole entry): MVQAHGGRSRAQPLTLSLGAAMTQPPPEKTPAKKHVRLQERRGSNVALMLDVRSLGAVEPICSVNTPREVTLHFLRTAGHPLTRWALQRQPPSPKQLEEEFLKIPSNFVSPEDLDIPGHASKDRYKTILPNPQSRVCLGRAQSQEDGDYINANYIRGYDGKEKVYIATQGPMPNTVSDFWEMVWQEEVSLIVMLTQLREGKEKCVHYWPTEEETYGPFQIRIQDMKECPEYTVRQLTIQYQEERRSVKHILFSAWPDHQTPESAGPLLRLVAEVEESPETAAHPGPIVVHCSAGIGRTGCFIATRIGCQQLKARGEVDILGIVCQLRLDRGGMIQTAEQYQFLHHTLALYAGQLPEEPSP

[15] = biological target: Tyrosine-protein phosphatase non-receptor type 11 (Homo sapiens, UniProt Q06124); test: PTPN11 enzyme inhibitors – biochemical, selectivity assay for STEP inhibitor project, dose response (AID 602367); assay type: functional; details: read-out: IC50_Mean
Chain of Tyrosine-protein phosphatase non-receptor type 11 (Q06124 whole entry): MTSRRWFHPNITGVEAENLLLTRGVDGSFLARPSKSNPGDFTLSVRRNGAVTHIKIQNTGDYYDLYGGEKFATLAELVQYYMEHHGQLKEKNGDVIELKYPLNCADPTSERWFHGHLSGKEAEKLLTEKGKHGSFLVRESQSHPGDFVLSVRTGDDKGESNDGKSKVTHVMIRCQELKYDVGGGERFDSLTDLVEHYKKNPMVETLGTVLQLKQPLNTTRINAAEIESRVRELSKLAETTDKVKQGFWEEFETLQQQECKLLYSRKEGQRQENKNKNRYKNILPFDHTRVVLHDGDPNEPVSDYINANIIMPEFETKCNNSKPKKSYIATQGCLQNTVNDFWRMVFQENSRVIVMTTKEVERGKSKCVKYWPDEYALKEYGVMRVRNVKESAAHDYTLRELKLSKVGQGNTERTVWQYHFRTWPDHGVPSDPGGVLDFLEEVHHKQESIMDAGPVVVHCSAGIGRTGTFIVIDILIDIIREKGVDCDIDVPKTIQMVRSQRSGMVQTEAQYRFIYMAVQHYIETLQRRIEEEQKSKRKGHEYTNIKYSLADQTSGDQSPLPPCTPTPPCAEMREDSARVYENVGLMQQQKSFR

[16] = biological target: T2, Dual specificity protein phosphatase 3; test: VHR1 phosphatase inhibitors, primary screen, biochemical, absorbance, uHTS (AID 1654)
[17] = biological target: T5, Trace amine-associated receptor 1 (Homo sapiens, UniProt Q96RJ0); test: Counterscreen for agonists of the human trace amine associated receptor 1 (hTAAR1): Fluorescence-based cell-based high throughput dose response assay to identify hTAAR1 agonist that also desensitize TAAR1 receptor response.; assay type: functional
T5 sequence (Q96RJ0 whole entry): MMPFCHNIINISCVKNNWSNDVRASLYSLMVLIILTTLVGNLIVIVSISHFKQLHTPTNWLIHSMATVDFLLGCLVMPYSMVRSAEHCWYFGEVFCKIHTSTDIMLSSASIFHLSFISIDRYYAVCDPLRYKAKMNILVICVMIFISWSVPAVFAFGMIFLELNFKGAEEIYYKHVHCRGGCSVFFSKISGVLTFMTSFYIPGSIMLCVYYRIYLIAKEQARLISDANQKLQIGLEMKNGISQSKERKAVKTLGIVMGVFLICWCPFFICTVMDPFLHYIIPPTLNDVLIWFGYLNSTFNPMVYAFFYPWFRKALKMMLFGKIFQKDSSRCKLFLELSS

[18] = biological target: Tyrosine-protein phosphatase non-receptor type 5 (Homo sapiens, UniProt P54829); test: PTPN5 enzyme inhibition – biochemical, fluorescence intensity, uHTS hits, confirmation (AID 602372); assay type: functional; details: read-out: IC50_Mean
Chain of Tyrosine-protein phosphatase non-receptor type 5 (P54829 whole entry): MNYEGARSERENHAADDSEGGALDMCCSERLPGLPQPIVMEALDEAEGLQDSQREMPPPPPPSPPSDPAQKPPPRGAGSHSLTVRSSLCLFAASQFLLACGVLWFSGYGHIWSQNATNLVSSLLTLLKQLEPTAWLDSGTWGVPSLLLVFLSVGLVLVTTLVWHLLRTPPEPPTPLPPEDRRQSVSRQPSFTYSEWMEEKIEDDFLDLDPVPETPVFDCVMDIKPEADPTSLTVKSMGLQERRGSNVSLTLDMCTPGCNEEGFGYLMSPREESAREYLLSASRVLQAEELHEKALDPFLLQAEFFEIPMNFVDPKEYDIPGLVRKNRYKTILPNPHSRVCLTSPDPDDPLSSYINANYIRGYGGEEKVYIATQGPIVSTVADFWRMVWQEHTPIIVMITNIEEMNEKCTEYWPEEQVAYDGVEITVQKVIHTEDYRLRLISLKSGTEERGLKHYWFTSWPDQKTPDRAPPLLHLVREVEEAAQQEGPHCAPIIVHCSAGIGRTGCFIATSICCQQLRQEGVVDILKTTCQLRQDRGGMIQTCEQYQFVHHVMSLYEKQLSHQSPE

[19] = biological target: T2, Dual specificity protein phosphatase 3; test: SAR VHR1 Fluorescent Assay for In Vitro dose response studies Set 2. [Related pubchem assays (depositor defined):AID1654, AID1661, AID1878]; assay type: functional
[20] = biological target: T4, Tyrosine-protein phosphatase non-receptor type 7; test: SAR analysis of chemical inhibitors of HePTP using a Fluorescent assay - Set 2. [Related pubchem assays (depositor defined):AID1059, AID1077, AID1661, AID2085, AID521]; assay type: functional
[21] = biological target: T5, Trace amine-associated receptor 1; test: Fluorescence-based cell-based high throughput dose response assay to identify agonists of the human trace amine associated receptor 1 (TAAR1).; assay type: functional

CN(C)CCNC(=O)/C(=C/c1ccc(-c2ccc(Cl)cc2)o1)NC(=O)c1ccccc1
EC50 [1]: 9.77 µM (active)
EC50 [2]: 10.9 µM (active)
AC50 (A-375 [3]): > 11 µM (active)
AC50 (A-375 [4]): > 11 µM (active)

Cc1noc(C)c1C(=O)N1CCC2(CCCN(C(=O)NC(C)C)C2)CC1
AC50 (Cytochrome P450 2C9): inconclusive
AC50 (Cytochrome P450 2C19): inconclusive
AC50 (Cytochrome P450 1A2): inconclusive

S=C(NCCc1ccccc1)Nc1c(Cl)cccc1Cl
IC50 [5]: 0.342 µM (active)
EC50 (cells [6]): > 29.9 µM (inactive)
IC50 [7]: > 100 µM (inactive)
IC50 [8]: 4.31 µM (active)
IC50 [9]: 1.12 µM (active)
IC50 (cells [10]): > 29.9 µM (inactive)
IC50 [11]: > 99 µM (inactive)
IC50 [12]: > 99 µM (inactive)
IC50 [13]: > 158 µM (not active)
IC50 [14]: 0.0345 µM (active)
IC50 [15]: 5.76 µM (active)
IC50 [16]: 2.44 µM (active)
IC50 [17]: 4.11 µM (active)
IC50 [18]: 14.5 µM (active)
IC50 [19]: 0.347 µM (active)
IC50 [20]: 0.447 µM (active)
EC50 [21]: 0.565 µM (active)
